The values that follow come from ChEMBL document CHEMBL4229501, “Synthesis, characterization and nociceptive screening of new VV-hemorphin-5 analogues” (Bioorg Med Chem Lett, 2018).

The nature of series [1]: Dissociation constant, pKa of the compound at pH 5.02 to 10.20 by cyclic voltammetry. The series is classed as physicochemical.
A short description of series [2]: Anodic potential of the compound at pH 8.10 by differential pulse voltammetry. The class given is physicochemical. To be noted: pH 8.1.
A short description of series [3]: Anodic potential of the compound at pH 9.20 by differential pulse voltammetry. The series is classed as physicochemical. To be noted: pH 9.2.
Series [4] is described as follows: Anodic potential of the compound at pH 10.20 by differential pulse voltammetry. The series is classed as physicochemical. The settings on record: pH 10.2.
Series [5] in a line: Anodic potential of the compound at pH 6.86 by differential pulse voltammetry. The class given is physicochemical.
The nature of series [6]: Anodic potential of the compound at pH 6.02 by differential pulse voltammetry. The series is classed as physicochemical.
The nature of series [7]: Anodic potential of the compound at pH 5.02 by differential pulse voltammetry. The class given is physicochemical.
In series [8] the test system is Mus musculus. As to the kind of experiment: Antinociceptive activity in albino ICR mouse assessed as decrease in number of acetic acid-induced abdominal constriction at 50 to 100 ug/mouse, icv administered 5 mins prior to acetic acid challenge and measured every 5 mins for 30 mins post acetic acid challenge. The class given is functional, organism-based.
The test system of series [9] is Mus musculus. As to the kind of experiment: Antinociceptive activity in albino ICR mouse assessed as decrease in number of acetic acid-induced abdominal constriction at 25 ug/mouse, icv administered 5 mins prior to acetic acid challenge and measured every 5 mins for 30 mins post acetic acid challenge. The class given is functional, organism-based.
Series [10] relates to Mus musculus. The series is described as follows: Antinociceptive activity in albino ICR mouse assessed as decrease in number of acetic acid-induced abdominal constriction at 100 ug/mouse, icv administered 5 mins prior to acetic acid challenge and measured at 5 mins post acetic acid challenge. The series is classed as functional, organism-based.
Series [11] has as its system Mus musculus. As to the kind of experiment: Antinociceptive activity in albino ICR mouse assessed as decrease in number of acetic acid-induced abdominal constriction at 100 ug/mouse, icv administered 5 mins prior to acetic acid challenge and measured every 5 mins for 15 mins post acetic acid challenge. The series is classed as functional, organism-based.
Series [12] deals with Mus musculus. The series is described as follows: Antinociceptive activity in albino ICR mouse assessed as decrease in number of acetic acid-induced abdominal constriction at 25 to 50 ug/mouse, icv administered 5 mins prior to acetic acid challenge and measured every 5 mins for 30 mins post acetic acid challenge. The series is classed as functional, organism-based.
Series [13] concerns Mus musculus. As to the kind of experiment: Antinociceptive activity in albino ICR mouse assessed as decrease in number of acetic acid-induced abdominal constriction at 100 ug/mouse, icv administered 5 mins prior to acetic acid challenge and measured every 5 mins for 10 mins post acetic acid challenge. The class given is functional, organism-based.
The test system of series [14] is Mus musculus. The series is described as follows: Antinociceptive activity in albino ICR mouse assessed as decrease in number of acetic acid-induced abdominal constriction at 25 to 100 ug/mouse, icv administered 5 mins prior to acetic acid challenge and measured every 5 mins for 30 mins post acetic acid challenge. The class given is functional, organism-based.
For series [15], the system named is Mus musculus. As to the kind of experiment: Antinociceptive activity in albino ICR mouse assessed as decrease in number of acetic acid-induced abdominal constriction at 50 ug/mouse, icv administered 5 mins prior to acetic acid challenge and measured every 5 mins for 30 mins post acetic acid challenge. The series is classed as functional, organism-based.

Active and inactive are the calls of the source. The calls are words filed in the database; no cut-off is given here. Square brackets hold non-standard residues; d marks the D form. Peptide text beside a SMILES is read from it. Aib = CC(C)(N)C(=O)O

Usually pKa stands for the negative logarithm of the acid dissociation constant. The compound `CC(C)[C@H](N)C(=O)N[C@H](C(=O)N[C@@H](Cc1ccc(O)cc1)C(=O)N1CCC[C@H]1C(=O)N[C@@H](Cc1c[nH]c2ccccc12)C(=O)N[C@H](C(=O)N[C@@H](CCCCN)C(N)=O)[C@@H](C)O)C(C)C` yielded a pKa in series [1] of 8.24. The Activity in [2] was 0.071 V; in [3] it was 0.055 V; in [4], 0.057 V; in series [5], 0.125 V; in series [6], 0.15 V; in [7] it was 0.211 V.
In series [1], H-VVYPWTQ-NH2 came in with a pKa of 7.13. The Activity in series [2] is 0.046 V; in [3], 0.046 V; in [4] it was 0.046 V; in series [5], 0.048 V; in series [6] it was 0.151 V; in series [7] it was 0.225 V. In the series on Mus musculus [8], the outcome was Active. The result with Mus musculus [9] was inactive.
`CC(C)[C@H](N)C(=O)N[C@H](C(=O)N[C@@H](Cc1ccc(O)cc1)C(=O)N1CCC[C@H]1C(=O)N[C@@H](Cc1c[nH]c2ccccc12)C(=O)N[C@H](C(=O)N[C@@H](CCN)C(N)=O)[C@@H](C)O)C(C)C`: the pKa in series [1] amounted to 8.12. Moreover, the Activity in series [2] turned out to be 0.009 V; in series [3], 0.001 V; in [4] it was 0 V; in series [5] it was 0.07 V; in series [6], 0.13 V; in series [7], 0.23 V.
Consider `CC(C)[C@H](N)C(=O)N[C@H](C(=O)N[C@@H](Cc1ccc(O)cc1)C(=O)N1CCC[C@H]1C(=O)N[C@@H](Cc1c[nH]c2ccccc12)C(=O)N[C@H](C(=O)N[C@H](CCN)C(N)=O)[C@@H](C)O)C(C)C`, for which the outcome in the series with Mus musculus [10] was Active. Further, the result in the series on Mus musculus [11] was inactive. Also, the Activity entry in the series on Mus musculus [12] is “Dose-dependent effect”.
`CC(C)[C@H](N)C(=O)N[C@H](C(=O)N[C@@H](Cc1ccc(O)cc1)C(=O)N1CCC[C@H]1C(=O)N[C@@H](Cc1c[nH]c2ccccc12)C(=O)N[C@H](C(=O)N[C@@H](CN)C(N)=O)[C@@H](C)O)C(C)C` displayed a pKa in [1] of 9.23. For the same compound, the Activity in series [2] amounted to 0.085 V; in series [3], 0.008 V; in series [4] it was 0.001 V; in [5], 0.15 V; in [6], 0.207 V; in [7] it was 0.225 V.
Turning to `CC(C)[C@H](N)C(=O)N[C@H](C(=O)N[C@@H](Cc1ccc(O)cc1)C(=O)N1CCC[C@H]1C(=O)N[C@@H](Cc1c[nH]c2ccccc12)C(=O)N[C@H](C(=O)N[C@H](CCCCN)C(N)=O)[C@@H](C)O)C(C)C`, the result in the series with Mus musculus [9] and in the series with Mus musculus [13] was Active.
As for `CC(C)[C@H](NC(=O)[C@@H](NC(=O)C(C)(C)N)C(C)C)C(=O)N[C@@H](Cc1ccc(O)cc1)C(=O)N1CCC[C@H]1C(=O)N[C@@H](Cc1c[nH]c2ccccc12)C(=O)N[C@H](C(=O)N[C@@H](CCC(N)=O)C(N)=O)[C@@H](C)O` (H-[Aib]VVYPWTQ-NH2), in the series with Mus musculus [14], the outcome was inactive. For the same compound, in [1], the pKa turned out to be 8.17. The Activity in series [2] is recorded as 0.025 V; in [3], 0.031 V; in [4] it was 0.03 V; in series [5] it was 0.101 V; in series [6] it was 0.175 V; in series [7], 0.232 V.
Regarding `CC(C)[C@H](N)C(=O)N[C@H](C(=O)N[C@@H](Cc1ccc(O)cc1)C(=O)N1CCC[C@H]1C(=O)N[C@@H](Cc1c[nH]c2ccccc12)C(=O)N[C@H](C(=O)N[C@H](CN)C(N)=O)[C@@H](C)O)C(C)C`, the result in the series with Mus musculus [14] was Active.
Regarding `CC[C@H](C)[C@@H](N)C(=O)N[C@H](C(=O)N[C@H](C(=O)N[C@@H](Cc1ccc(O)cc1)C(=O)N1CCC[C@H]1C(=O)N[C@@H](Cc1c[nH]c2ccccc12)C(=O)N[C@H](C(=O)N[C@@H](CCC(N)=O)C(N)=O)[C@@H](C)O)C(C)C)C(C)C`, in the series on Mus musculus [12], the Activity entry was “Dose-dependent effect”. Further, in the series with Mus musculus [13], the outcome was inactive.
In series [1], `CC[C@H](C)[C@H](N)C(=O)N[C@H](C(=O)N[C@H](C(=O)N[C@@H](Cc1ccc(O)cc1)C(=O)N1CCC[C@H]1C(=O)N[C@@H](Cc1c[nH]c2ccccc12)C(=O)N[C@H](C(=O)N[C@@H](CCC(N)=O)C(N)=O)[C@@H](C)O)C(C)C)C(C)C` came in with a pKa of 8.01. For the same compound, the Activity was found to be 0.062 V in [2]; 0.067 V in [3]; 0.06 V in series [4]; 0.11 V in series [5]; 0.16 V in series [6]; 0.213 V in series [7].
`CC(C)[C@H](N)C(=O)N[C@H](C(=O)N[C@@H](Cc1ccc(O)cc1)C(=O)N1CCC[C@H]1C(=O)N[C@@H](Cc1c[nH]c2ccccc12)C(=O)N[C@H](C(=O)N[C@H](CCCN)C(N)=O)[C@@H](C)O)C(C)C`: in the series on Mus musculus [9], the outcome was inactive. In the series with Mus musculus [15], the result was Active.
As to `CC(C)[C@H](N)C(=O)N[C@H](C(=O)N[C@@H](Cc1ccc(O)cc1)C(=O)N1CCC[C@H]1C(=O)N[C@@H](Cc1c[nH]c2ccccc12)C(=O)N[C@H](C(=O)N[C@@H](CCCN)C(N)=O)[C@@H](C)O)C(C)C`, in series [1], the pKa was found to be 7.83. Also, the Activity was 0.075 V in series [2]; 0.082 V in series [3]; 0.079 V in series [4]; 0.117 V in [5]; 0.175 V in series [6]; 0.225 V in series [7].
